Experiments:
Format in all cases: cell-based, Human
IL8 gene = experiment: RT-qPCR IL8 gene expression in HCT116; settings: HCT116, 100 μM, 24 h, vs untreated control
Method: (§1) In each of the four compound groups: MJ1–MJ5, MJ6–MJ10, MJ11–MJ15, and MJ16–MJ20, one compound was selected based on the best IC50 value and a distinctive gene expression profile (BCL2, MDM2, AIFM2, IL6, IL8).
(§2) Gene expression studies used quantitative RT-qPCR to assess the effect of the tested quinobenzothiazines (MJ1–MJ20) on the expression of apoptosis-related genes (BCL2, AIFM2, MDM2) and pro-inflammatory cytokines (IL6, IL8) (Table 4).
(§3) BEAS-2B and HCT116 cells were seeded in 6-well plates at 2 × 10^5 cells per well and cultured in RPMI-1640 (BEAS-2B) or DMEM (HCT116) medium supplemented with 10% FBS and 1% penicillin/streptomycin at 37 °C, 5% CO2 and 95% humidity. After 24 h of incubation, the tested compounds were added at a concentration of 100 µM. After 24 h, the medium was removed from the cells, washed with PBS solution, 0.5 mL of trypsin was added per well and after 5 min it was neutralized with medium. […]
(§4) Total RNA was isolated from cells using the A&A Biotechnology Total RNA Mini kit according to the manufacturer’s protocol. RNA quality and quantity were assessed using a NanoDrop 2000 spectrophotometer at 260/280 nm. […]
(§5) The results were analyzed using the R = 2^−ΔΔCt method, which allows for determining the relative level of gene expression (R) compared to the control. […]

BEAS-2B = experiment: Alamar Blue cytotoxicity test, BEAS-2B; settings: Homo sapiens, 24 h, 24 h incubation, read-out: IC50 values for BEAS-2B line
Method: The cytotoxicity of the tested chemical compounds MJ1–MJ20 was tested using the Alamar Blue test. The experiment was conducted on cell lines BEAS-2B (Figure 7), HCT116 (Figure 8), U2OS (Figure 9), MCF7 (Figure 10), SH-SY5Y (Figure 11), NHDF (Figure 12), and A549 (Figure 13). Cells were seeded in 96-well plates and incubated with the tested compounds for 24 h. The test result is the IC50 parameter, which is a measure of cytotoxic activity expressed by the concentration of the substance that causes the death of half of the analyzed cells compared to the control.
In cytotoxicity studies, the Alamar Blue test was used, which is based on the ability of living cells to reduce the non-fluorescent dye resazurin to fluorescent resorufin, which reflects the metabolic activity of cells. BEAS-2B, NHDF, HCT116, MCF7, A549, SH-SY5Y and U2OS cell lines were cultured under standard conditions, in DMEM medium supplemented with 10% FBS and 1% penicillin/streptomycin, at 37 °C, 5% CO2 and 95% humidity. Cells were seeded in 96-well plates at 1 × 10^4 cells per well and incubated for 24 h. Then, the tested compounds (MJ1–MJ20) were added at different concentrations (from 6.25 µM to 100 µM). The control contained cells untreated with the tested compounds. After 24 h of incubation, 10 µL of Alamar Blue solution was added to each well and incubated for another 2–4 h under the same conditions. The signal was measured spectrophotometrically at wavelengths of 570 nm (for resorufin) and 600 nm (for resazurin) or optionally fluorimetrically, using an excitation maximum of 570 nm and an emission maximum of 585 nm. The results were presented as percentage of cell survival relative to the control, calculating the ratio of absorbance or fluorescence of the sample to the control value. The Alamar Blue assay, due to its sensitivity and non-toxicity, allows for an accurate assessment of metabolic activity and cell survival in response to the tested quinobenzothiazines.

IL6 gene [1] = experiment: RT-qPCR IL6 gene expression in BEAS-2B; settings: 24 h; for fold induction at 100 µM: Homo sapiens, reference gene RPL41, vs untreated control, read-out: Relative level of expression, IL6 gene
Method: (§6) Real-time polymerase chain reaction was performed for the reference gene RPL41 (ribosomal protein L41) and the tested genes: BCL2, AIFM2, MDM2, IL6 and IL8. […] The BEAS-2B line was selected for the experiment. The expression level of selected genes was measured after 24 h of incubation with the tested substances MJ1–MJ20 at a concentration of 100 μM (Table 3).
The RT-qPCR experiment was performed for the BEAS-2B cell line. In this experiment, the IL6 and IL8 genes were studied and RPL41 was used as a reference gene (Figure 17 and Figure 18).
as §2
(§7) BEAS-2B and HCT116 cells were seeded in 6-well plates at 2 × 10^5 cells per well and cultured in RPMI-1640 (BEAS-2B) or DMEM (HCT116) medium supplemented with 10% FBS and 1% penicillin/streptomycin at 37 °C, 5% CO2 and 95% humidity. After 24 h of incubation, the tested compounds were added at a concentration of 100 µM. After 24 h, the medium was removed from the cells, washed with PBS solution, 0.5 mL of trypsin was added per well and after 5 min it was neutralized with medium. The obtained cell suspension was centrifuged for 3 min at 2000 rpm, the supernatant was removed, and the obtained pellet was suspended in 400 µL of phenozol. Samples were frozen at −20 °C and stored until further experiment and RNA isolation.
(§8) Total RNA was isolated from cells using the A&A Biotechnology Total RNA Mini kit according to the manufacturer’s protocol. RNA quality and quantity were assessed using a NanoDrop 2000 spectrophotometer at 260/280 nm. Reverse transcription was performed using the protocol (EURx NG dART RT Kit) to obtain cDNA. After incubation, samples were placed in a freezer (−20 °C) and stored until further analysis.
(§9) The experiment was performed according to the protocol (Brilliant III Ultra Fast SYBR® Green QPCR Master Mix, Quick Reference Guide for the Bio-Rad CFX96 Real-Time PCR Detection System). RT-qPCR reaction was performed using specific primers for target genes (BCL2, AIFM2, MDM2, IL6, IL8). Gene expression was normalized to the expression of the reference gene RPL41. Reaction profiles and results were performed using Bio-Rad CFX Maestro 1.1 software from Bio-Rad. Analysis and calculations of the results obtained during RT-qPCR were performed using Microsoft Excel.
(§10) The results were analyzed using the R = 2^−ΔΔCt method, which allows for determining the relative level of gene expression (R) compared to the control. Each experiment was performed in three technical and biological replicates. RT-qPCR allowed for precise assessment of changes in the expression of genes related to the processes of apoptosis and inflammatory response under the influence of quinobenzothiazines, which allowed for identifying their potential mechanisms of action at the molecular level.

BCL2 gene = experiment: RT-qPCR BCL2 gene expression in BEAS-2B; settings: 24 h; for fold induction at 100 µM: Homo sapiens, reference gene RPL41, vs untreated control, read-out: Relative level of expression, BCL2 gene
Method: as §6
The RT-qPCR experiment was performed for the BEAS-2B cell line. In this experiment, the BCL2 gene was studied, and RPL41 was used as the reference gene (Figure 14).
as §2, §7, §8, §9, §10

IL6 gene [2] = experiment: RT-qPCR IL6 gene expression in HCT116; settings: HCT116, 100 μM, 24 h, vs untreated control
Method: as §1, §2, §3, §4, §5

AIFM2 gene = experiment: RT-qPCR AIFM2 gene expression in HCT116; settings: HCT116, 100 μM, 24 h, vs untreated control
Method: as §1, §2, §3, §4, §5

MDM2 gene = experiment: RT-qPCR MDM2 gene expression in HCT116; settings: HCT116, 100 μM, 24 h, vs untreated control
Method: as §1, §2, §3, §4, §5

SMILES: Fc1ccc2c(c1)Sc1cc3ccccc3nc1N2Cc1cn(Cc2ccc(Cl)cc2)nn1 [MJ8, 9-Fluoro-6-[(1-(4-chlorobenzyl)-1H-1,2,3-triazol-4-yl)methyl]-quino[3,2-b]benzo-[1,4]thiazine]
- Relative level of expression, IL8 gene (IL8 gene): 6.95
- IC50 (BEAS-2B): 71.9 µM
- fold induction at 100 µM (IL6 gene [1]): 9.9
- fold induction at 100 µM (BCL2 gene): 10.1
- Relative level of expression, IL6 gene (IL6 gene [2]): 6.55

SMILES: CSc1ccc2c(c1)Sc1cc3ccccc3nc1N2Cc1cn(Cc2ccc(C#N)cc2)nn1 [MJ19, 4-((4-((9-Methylthioquino[3,2-b]benzo[1,4]thiazin-6-yl)methyl)-1H-1,2,3-triazol-1-yl)methyl)benzonitrile]
- IC50 (BEAS-2B): 72.7 µM
- IL6 expression increase (IL6 gene [1]; 100 μM, compared to control): 57.2 fold
- fold induction at 100 µM (IL6 gene [1]): 57.2
- BCL2 expression increase (BCL2 gene; 100 μM, compared to control): 208 fold
- fold induction at 100 µM (BCL2 gene): 208

SMILES: Fc1ccc(Cn2cc(CN3c4ccccc4Sc4cc5ccccc5nc43)nn2)cc1 [MJ2, 6-((1-(4-Fluorobenzyl)-1H-1,2,3-triazol-4-yl)methyl)-quino[3,2-b]benzo[1,4]thiazine]
- IC50 (BEAS-2B): 76.2 µM
- fold induction at 100 µM (IL6 gene [1]): 1.7
- fold induction at 100 µM (BCL2 gene): 6.5

SMILES: Clc1ccc2c(c1)Sc1cc3ccccc3nc1N2Cc1cn(CSc2ccccc2)nn1 [MJ15, 9-Chloro-6-((1-((phenylthio)methyl)-1H-1,2,3-triazol-4-yl)methyl)-quino[3,2-b]benzo[1,4]thiazine]
- IC50 (BEAS-2B): 87.2 µM
- Relative level of expression, AIFM2 gene (AIFM2 gene): 4.94
- fold induction at 100 µM (IL6 gene [1]): 13
- Relative level of expression, MDM2 gene (MDM2 gene): 3.73
- fold induction at 100 µM (BCL2 gene): 60.3
- Relative level of expression, IL6 gene (IL6 gene [2]): 5.56
